In publication PMC9021288 (Nature Communications, 2022):
Several values for one entry are separate records, joined by “and”; a condition that tells them apart may be missing. Equal entries are not always repeated. Entries after “also recorded” stand apart in the source; their conditions may differ.

How the values were obtained:
[1] = Stability under stress storage conditions (XRPD); type: physicochemical; details: 40 °C, 75% RH open and closed container or 60 °C, one month
panel of human enzymes = assay: Off-target enzyme and uptake assays (Eurofins CEREP); type: biochemical; details: for % Inhibition of Control Values: Rep1, Rep2, Mean
[2] = system: P. falciparum NF54 sporozoites / liver stages; assay: Liver-stage development in human primary hepatocytes; type: cell-based, Plasmodium falciparum; parameters: infected hepatocytes (Rep1, Rep2): unit not given here
Method: To assess parasite development in hepatocytes, cryopreserved human primary hepatocytes (Tebu-Bio lot: HC10-10) were thawed according to the manufacturer’s protocol and seeded (50,000 cells per well) in collagen-coated 96-well plates (Greiner). Cells were cultured at 37 °C in 5% CO2 and the medium was refreshed after 3 h and 24 h. Salivary glands from Anopheles stephensi mosquitoes were dissected to obtain NF54 sporozoites that were added (60,000 per well) to hepatocytes 48 h post-thawing. Plates were spun down and sporozoites were incubated with hepatocytes for 3 h. Subsequently, sporozoites were aspirated and compounds diluted in hepatocyte medium, were added to the hepatocytes (0.1% DMSO final concentration). Medium-containing compounds was refreshed daily for four days. Hepatocytes were fixed with ice-cold methanol and samples were blocked with 10% fetal bovine serum (FBS) in PBS. Samples were incubated with rabbit anti-HSP70 (1:75, StressMarq) in 10% FBS for 1-2 h followed by incubation with secondary goat anti-rabbit AlexaFluor 594 antibody (1:1000, Invitrogen) in 10% FBS for 30 min. Samples were washed with PBS containing 0.05% Tween 20 between different steps. Cells were imaged on the Biotek Cytation and images were analyzed automatically using FIJI software.

Caco-2 = Caco-2 permeability assay; details: pH 7.4/7.4
[3] = system: human G6PD-A-deficient RBCs; assay: Hemolytic toxicity in NSG mice engrafted with G6PD-deficient human RBCs; details: for Hematocrit / Spleen weight: individual mice
Method: Hemolytic toxicity was determined in female NSG mice (Jackson Laboratories) using erythrocytes from a G6PD-A-deficient blood donor (0.4 u/g hemoglobin).

CYP3A4 = assay: CYP induction (mRNA) in human hepatocytes; type: in vitro ADME; details: for CYP3A4 mean fold induction: per donor
Method: (§1) Positive control inducers (omeprazole for CYP1A2, phenobarbital for CYP2B6, and rifampicin for CYP3A4), were incubated alongside the test compound. For mRNA assessment, cells were lysed and resultant samples analyzed using an ABI 7900 HT real-time PCR system.

CYP1A2 = assay: CYP induction (mRNA) in human hepatocytes; type: in vitro ADME; details: for CYP1A2 mean fold induction: per donor
Method: as §1

CYP2B6 = assay: CYP induction (mRNA) in human hepatocytes; type: in vitro ADME; details: for CYP2B6 mean fold induction: per donor
Method: as §1

[4] = system: control-cKD P. falciparum; assay: Drug sensitivity of control conditional knockdown parasites; type: cell-based, Plasmodium falciparum; details: 0 nM vs 500 nM aTc
Method: Replication assays were performed using a SYBR Green method as described previously. Briefly, asynchronous parasites were diluted to 0.83% parasitemia, 3% hematocrit in 30 µl medium, and added to 30 µl of diluted compounds in medium (0.1% DMSO final concentration) in black 384-wells plates. After a 72-h incubation, 30 µl of SYBR Green diluted in lysis buffer was added according to the manufacturer’s protocol (Life Technologies). Fluorescence intensity was measured on a BioTek Synergy 2 Plate Reader after 1-h incubation and was normalized to a DMSO control (100% growth) and DHA- or epoxomicin-treatment (no growth). […] Parasite survival was assessed by flow cytometry on an Accuri C6 (BD Biosciences) with BD C6 Plus software using SYBR Green and MitoTracker Deep Red FM (Life Technologies) as nuclear stain and vital dye, respectively, and data were analyzed using FlowJo (10.5.0). […] Luminescence was measured after 72 h using the Renilla-Glo(R) Luciferase Assay System (Promega E2750) and the GlomAX® Discover Multimode Microplate Reader (Promega). The luminescence values were normalized to DMSO vehicle (100% growth) and 200 nM chloroquine-treated (no growth) samples as controls.

[5] = 10 mg/kg group, day 0, individual mice
[6] = 10 mg/kg group, day 4, individual mice
[7] = 10 mg/kg group, day 7, individual mice
[8] = 25 mg/kg group, day 0, individual mice
[9] = 25 mg/kg group, day 4, individual mice
[10] = 25 mg/kg group, day 7, individual mice
[11] = 50 mg/kg group, day 0, individual mice
[12] = 50 mg/kg group, day 4, individual mice
[13] = 50 mg/kg group, day 7, individual mice

## C[C@@H](CNC(=O)[C@H](O)C(C)(C)CO)NC(=O)c1cc(F)c(F)cc1F [MMV693183]
[1]
  stability after storage under stress conditions: chemically stable; also recorded: no form-change
Panel of human enzymes; 10 µM
  induction, GABA transaminase: 30.7%
  inhibition, HDAC11: 36.9%
  inhibition/induction, all other enzyme and uptake assays: less than 25%
Panel of human enzymes; ATPase (Na+/K+)
  % Inhibition of Control Values: -2.75% and -1.9% and -3.6%
Panel of human enzymes; CENP-E (h)
  % Inhibition of Control Values: -0.4% and -0.6% and -0.2%
Panel of human enzymes; COX1(h)
  % Inhibition of Control Values: -4.65% and -5.4% and -3.9%
Panel of human enzymes; Eg5 (h)
  % Inhibition of Control Values: -5.55% and -2% and -9.1%
Panel of human enzymes; GABA transaminase
  % Inhibition of Control Values: -30.7% and -29.5% and -31.9%
Panel of human enzymes; HDAC6 (h)
  % Inhibition of Control Values: -14.7% and -18.7% and -10.7%
Panel of human enzymes; HDAC11 (h)
  % Inhibition of Control Values: 36.9% and 32.5% and 41.3%
Panel of human enzymes; MAO-A (h)
  % Inhibition of Control Values: 1.7% and -0.1% and 3.5%
Panel of human enzymes; MAO-B (h) recombinant enzyme
  % Inhibition of Control Values: -1.9%
Panel of human enzymes; PDE1B (h)
  % Inhibition of Control Values: 0.9% and -2.7% and 4.5%
Panel of human enzymes; PDE2A1 (h)
  % Inhibition of Control Values: -1% and -4.3% and 2.3%
Panel of human enzymes; PDE3A (h)
  % Inhibition of Control Values: 1.1% and -1.7% and 3.9%
Panel of human enzymes; PDE5 (h) (non-selective)
  % Inhibition of Control Values: -3.55% and -4.2% and -2.9%
Panel of human enzymes; acetylcholinesterase (h)
  % Inhibition of Control Values: 5.45% and 8.7% and 2.2%
Panel of human enzymes; phosphatase 1B (h) (PTP1B)
  % Inhibition of Control Values: 10.8% and 11.2% and 10.4%
Panel of human enzymes; phosphatase CDC25A (h)
  % Inhibition of Control Values: -0.35% and -5% and 4.3%
Panel of human enzymes; sirtuin 1 (h) (inhibitor effect)
  % Inhibition of Control Values: -1.45% and -1.9% and -1%
Panel of human enzymes; tyrosine hydroxylase
  % Inhibition of Control Values: -0.5% and 2.4% and -3.4%
[2]
  efficacy against liver stages: not efficacious against liver stages
[2]; log concentration (M) -5
  infected hepatocytes (Rep1, Rep2): 0.0299 and 0.0223
[2]; log concentration (M) -5.5
  infected hepatocytes (Rep1, Rep2): 0.0585 and 0.0696
[2]; log concentration (M) -7
  infected hepatocytes (Rep1, Rep2): 0.3352 and 0.4993
[2]; log concentration (M) -7.5
  infected hepatocytes (Rep1, Rep2): 0.3658 and 0.5068
Caco-2
  Average Papp A to B: 2.9e-06 s⁻¹
  Average Papp B to A: 1.35e-05 s⁻¹
  Efflux ratio: 4.7
[3]; [5]
  Human RBCs: 72.9% and 76.8% and 80.6% and 72.4%
  Reticulocytes: 0.38% and 0.65% and 0.32% and 0.87%
[3]; [6]
  Human RBCs: 67.9% and 72.1% and 75.9% and 68.6%
  Reticulocytes: 0.35% and 0.44% and 0.25% and 0.57%
[3]; [7]
  Human RBCs: 59.6% and 65.8% and 72.2% and 63.3%
  Reticulocytes: 0.17% and 0.14% (2×) and 0.35%
[3]; 10 mg/kg group
  Hematocrit: 53.45% and 54.69% and 60.66% and 56.45%
  Spleen weight: 0.305 % of body weight and 0.306 % of body weight and 0.265 % of body weight and 0.369 % of body weight
[3]; [8]
  Human RBCs: 78.9% and 75.9% and 78.6% and 71.6% and 75.5%
  Reticulocytes: 0.53% and 0.42% and 0.37% and 0.39% and 0.51%
[3]; [9]
  Human RBCs: 77.9% and 71.9% and 76% and 64.1% and 70.3%
  Reticulocytes: 0.24% (2×) and 0.32% and 0.61% and 0.43%
[3]; [10]
  Human RBCs: 77.4% and 67.8% and 68% and 58.3% and 68.8%
  Reticulocytes: 0.16% and 0.23% and 0.17% and 0.22% and 0.15%
[3]; 25 mg/kg group
  Hematocrit: 61.54% and 73.81% and 62.16% and 56.36% and 57.35%
  Spleen weight: 0.362 % of body weight and 0.462 % of body weight and 0.396 % of body weight and 0.366 % of body weight and 0.21 % of body weight
[3]; [11]
  Human RBCs: 75.4% (2×) and 77.9% and 80.2% and 74.5%
  Reticulocytes: 0.4% and 0.55% and 0.42% and 0.47% and 0.58%
[3]; [12]
  Human RBCs: 72.3% and 72.5% and 71.7% and 73.2% and 70.5%
  Reticulocytes: 0.27% and 0.41% and 0.23% and 0.34% and 0.49%
[3]; [13]
  Human RBCs: 65.4% and 71.3% and 68.2% and 66% and 66.7%
  Reticulocytes: 0.2% (2×) and 0.1% (2×) and 0.3%
[3]; 50 mg/kg group
  Hematocrit: 60.66% and 63.64% and 71.67% and 53.85% and 57.63%
  Spleen weight: 0.357 % of body weight and 0.427 % of body weight and 0.135 % of body weight and 0.294 % of body weight and 0.382 % of body weight
[3]; 10, 25, 50 mg/kg for four days
  hemolytic toxicity: Absence of detectable hemolytic toxicity; also recorded: did not show signs of hemolytic toxicity
CYP3A4; 5 µM
  CYP3A4 mean fold induction: 1.22 and 1.03 and 1.21
CYP3A4; 15 µM
  CYP3A4 mean fold induction: 0.824 and 0.905 and 0.816
CYP3A4; 50 µM
  CYP3A4 mean fold induction: 0.779 and 0.500 and 1.26
CYP3A4; 150 µM
  CYP3A4 mean fold induction: 1.19 and 0.477 and 1.98
CYP3A4; 250 µM
  CYP3A4 mean fold induction: 0.665 and 2.86
CYP3A4; 500 µM
  CYP3A4 mean fold induction: 3.6 and 3.63 and 1.49 and 3.16
CYP3A4; 72 h, three donors
  concentration at which CYP3A4 was induced: greater than 150 µM
CYP1A2; 5 µM
  CYP1A2 mean fold induction: 1.48 and 1.11 and 1.38
CYP1A2; 15 µM
  CYP1A2 mean fold induction: 1.04 and 1.07 and 0.844
CYP1A2; 50 µM
  CYP1A2 mean fold induction: 0.874 and 0.824 and 0.795
CYP1A2; 150 µM
  CYP1A2 mean fold induction: 0.704 and 0.613 and 0.609
CYP1A2; 250 µM
  CYP1A2 mean fold induction: 0.586 and 0.436
CYP1A2; 500 µM
  CYP1A2 mean fold induction: 0.357 and 0.496 and 0.293
CYP1A2; up to 500 µM
  CYP1A2 induction: did not induce CYP1A2 nor CYP2B6
CYP2B6; 5 µM
  CYP2B6 mean fold induction: 1.75 and 0.995 and 1.18
CYP2B6; 15 µM
  CYP2B6 mean fold induction: 1.38 and 0.951 and 1.660
CYP2B6; 50 µM
  CYP2B6 mean fold induction: 0.959 and 0.828 and 0.886
CYP2B6; 150 µM
  CYP2B6 mean fold induction: 0.663 and 0.721 and 0.727
CYP2B6; 250 µM
  CYP2B6 mean fold induction: 0.667 and 0.582
CYP2B6; 500 µM
  CYP2B6 mean fold induction: 0.495 and 0.699 and 0.325
CYP2B6; up to 500 µM
  CYP2B6 induction: did not induce CYP1A2 nor CYP2B6
[4]
  IC50 change upon knockdown: no difference in sensitivity
